Assay results: patent US20120244226A1, “TREATMENT COMPOSITION AND METHOD” (DEC INTERNATIONAL NZ LIMITED, priority 2009, published 2012)
“Also recorded” adds a separate entry of the source.

Tests used:
[1] = test system: tumor necrosis factor-α (TNF-α) produced by LPS activated neutrophils; assay: TNF-α production by LPS activated neutrophils (ELISA); type: cell-based, rat
Description: (§1) The anti-inflammatory properties of the cationic fraction, IDP, and the combination of IDP with chondroitin and glucosamine were determined by measuring their ability to inhibit the production of the inflammatory compounds, tumor necrosis factor-α (TNF-α) and interleukin-6 (IL-6) produced by LPS activated neutrophils. […] Neutrophils were isolated from rat blood and incubated in the presence of LPS. LPS is derived from bacterial cell walls and is used to mimic a 'bacterial infection'. […] Two of these cytokine are TNF-α and IL-6. The concentrations of both cytokines produced by neutrophils exposed to LPS and the various test substances are summarised graphically in FIGS. 1 and 2 respectively. […] Aliquots from each set of triplicates were combined, and duplicates assayed for cytokine concentrations. The plate blank was subtracted from each individual data point. A VersaMax 96-well plate reader was used to colorimetrically assess the production of TNF-α and IL-6 as determined by the ELISA, using Rat TNF-α ELISA kit, R&D Systems, Cat # RTA00, and Rat IL-6 ELISA kit, R&D Systems, Cat # […]. The average cytokine concentration, standard deviation and standard error were calculated for each data set (sample and concentration). Preliminary statistical significance was assessed using independent Student t-tests at α≦0.05.

[2] = test system: interleukin-6 (IL-6) produced by LPS activated neutrophils; assay: IL-6 production by LPS activated neutrophils (ELISA); type: cell-based, rat; details: for effect on IL-6, in words / inhibition of IL-6 production: over the concentrations tested; for inhibition of IL-6 production: concentration not given
Description: as §1

[3] = Rattus norvegicus, Neutrophil, 4 μg/ml, relative to LPS only control
[4] = Rattus norvegicus, Neutrophil, 12 μg/ml, relative to LPS only control
[5] = 300 μg/ml, relative to LPS only control
[6] = Rattus norvegicus, Neutrophil, 100 μg/ml, relative to LPS only control
[7] = Rattus norvegicus, Neutrophil, 300 μg/ml, relative to LPS only control
[8] = Rattus norvegicus, Neutrophil, read-out: TNF-α % Inhibition
[9] = Rattus norvegicus, Neutrophil, read-out: IL-6 % Inhibition
[10] = Rattus norvegicus, Neutrophil, 1 μg/ml, relative to LPS only control
[11] = Rattus norvegicus, Neutrophil, 10 μg/ml, relative to LPS only control

## COc1cc(/C=C/C(=O)CC(=O)/C=C/c2ccc(O)c(OC)c2)ccc1O [Curcumin, curcumin]
[1]
  dose response on TNF-α, in words: no apparent dose effect
[1]; 4 μg/ml
  TNF-α: 146.71 pg/mL
[1]; 12 μg/ml
  TNF-α: 180.66 pg/mL
[1]; [3]
  inhibition at 4 µg/mL: 46.7%
[1]; [4]
  inhibition at 12 µg/mL: 34.4%
[1]; over the concentrations tested, concentration not given
  inhibition of TNF-α production: approximately 50%
[2]
  dose response on IL-6, in words: no apparent dose effect
  effect on IL-6, in words: close to complete inhibition
  inhibition of IL-6 production: 90%
[2]; 4 μg/ml
  IL-6: 38.65 pg/mL
[2]; 12 μg/ml
  IL-6: 31.14 pg/mL
[2]; [3]
  inhibition at 4 µg/mL: 87%
[2]; [4]
  inhibition at 12 µg/mL: 89.5%

## CC(=O)Oc1ccccc1C(=O)O [Aspirin, acetylsalicylic acid]
[1]
  dose response on TNF-α, in words: characteristic dose response
[1]; 100 μg/ml
  TNF-α: 159.17 pg/mL
[1]; 300 μg/ml
  TNF-α: 99.45 pg/mL
[1]; [5]
  TNF-α % Inhibition: 63.9%
[1]; [6]
  inhibition at 100 µg/mL: 42.2%
[1]; [7]
  inhibition at 300 µg/mL: 64%
[1]; over the concentrations tested
  effect on TNF-α, in words: reducing both TNF-α and IL-6 levels significantly
[2]
  dose response on IL-6, in words: characteristic dose response
  effect on IL-6, in words: reducing both TNF-α and IL-6 levels significantly
[2]; 100 μg/ml
  IL-6: 63.2 pg/mL
[2]; 300 μg/ml
  IL-6: 0 pg/mL
[2]; [5]
  IL-6 % Inhibition: completely inhibited
[2]; [6]
  inhibition at 100 µg/mL: 78.7%
[2]; [7]
  inhibition at 300 µg/mL: 100%

## CCN(CC)CCCC(C)Nc1ccnc2cc(Cl)ccc12 (stereo not shown) [Chloroquine]
[1]; 50 μM
  TNF-α: 0 pg/mL
[1]; 100 μM
  TNF-α: 0 pg/mL
[1]; [8]
  inhibition at 50 µM: 100%
  inhibition at 100 µM: 100%
[1]; over the concentrations tested
  effect on TNF-α, in words: completely inhibiting; also recorded: completely inhibited
[2]; 50 μM
  IL-6: 0 pg/mL
[2]; 100 μM
  IL-6: 0 pg/mL
[2]; [9]
  inhibition at 50 µM: 100%
  inhibition at 100 µM: 100%
[2]
  effect on IL-6, in words: completely inhibiting; also recorded: completely inhibited

## O=C(O)Cc1ccccc1Nc1c(Cl)cccc1Cl [Diclofenac]
[1]
  dose response on TNF-α, in words: inverse dose response
[1]; 1 μg/ml
  TNF-α: 132.01 pg/mL
[1]; 1 μg/ml, relative to LPS only control
  TNF-α % Inhibition: 52.1%
[1]; 10 μg/ml
  TNF-α: 151.97 pg/mL
[1]; 100 μg/ml
  TNF-α: 342.46 pg/mL
  effect on TNF-α, in words: appeared to stimulate TNF-α
[1]; 100 μg/ml, listed as Voltaren (Diclofenac)
  TNF-α: 342 pg/mL
[1]; [10]
  inhibition at 1 µg/mL: 52%
[1]; [11]
  inhibition at 10 µg/mL: 44.8%
[1]; [6]
  inhibition at 100 µg/mL: -24.4%
[2]
  dose response on IL-6, in words: inverse dose response
[2]; 1 μg/ml
  IL-6: 78.39 pg/mL
[2]; 10 μg/ml
  IL-6: 90.55 pg/mL
[2]; 100 μg/ml
  IL-6: 185.71 pg/mL
[2]; [10]
  inhibition at 1 µg/mL: 73.6%
[2]; [11]
  inhibition at 10 µg/mL: 69.5%
[2]; [6]
  inhibition at 100 µg/mL: 37.4%
[2]; listed as Voltaren (Diclofenac)
  inhibition of IL-6 production: 74-38%
